Measured values from patent publication US12310950B2, “Formulations of pyrrolopyridine-aniline compounds” (NFLECTION THERAPEUTICS, INC., priority 2021, dated 2025).
“Also recorded” adds a separate entry of the source.

Columns and labels:
[1] = test system: cSCC; assay: UV-driven mouse model of cSCC, split-mouse study: total tumor burden; format: in vivo, Hairless SKH-1E mice; settings: split-control, 1.0% Compound 1.003 on one side, vehicle on the other, 30 days, n=5
Description: To internally control for potential systemic exposure, 5 mice were treated in split-control fashion with one side getting vehicle only and the other side of the same mouse receiving topical 1.0% Compound 1.003. Total tumor burden (summed volume) is quantified in untreated vs. treated sides at the beginning (black) as compared to the end of treatment 30 days later (n=5).
To definitively address the possibility of systemic exposure and non-local effects of topically applied Compound 1.003, 5 mice was treated in split-control fashion with one side with vehicle only and the other side with 1.0% Compound 1.003.

[2] = test system: phosphorylated-ERK1/2 (pERK); assay: Human cSCC explant: immunohistochemistry for p-ERK; format: cell-based; settings: 0.1% Compound 1.003 in NA-1a gel formulation on epidermal surface for 4 hours, vs vehicle
[3] = test system: p-ERK; assay: Minipig non-GLP 28-day dermal tolerability study: p-ERK suppression in skin; format: in vivo; settings: Compound 1.003 in gel formulation (NA-1a), 0.01% and 0.1%, 28 days
Description: Non-GLP 28-Day Dermal Tolerability Study: 4 doses of A-D formulations applied to each of 4 pigs (2 females, 2 males), where A: vehicle (NA-1a without Compound 1.003) at 30 uL/cm^2; B: NA-1a-0.01% at 10 uL/cm^2; C: NA-1a-0.1% at 30 uL/cm^2; and D: NA-1a-0.1% at 10 uL/cm^2. Minipigs were treated […] for 28 days. Biopsy obtained 4 hours after last dose on Day 28.

[4] = test system: p-ERK; assay: Ex vivo human cutaneous neurofibroma explants (Example 16): p-ERK by Western Blot; format: cell-based; settings: Compound 1.003 0.5% and 1.5%, topical on explant, 4 hours
Description: Biopsies of cutaneous neurofibroma were taken from patients undergoing excision of neurofibromas for clinical purposes. The ex vivo human explant model was established by incubating sections of biopsies of human cutaneous neurofibroma. Cutaneous Neurofibroma samples were removed from patients, transferred immediately to the lab in 15 ml […] tubes containing 5 ml DMEM/F-12 medium (Thermo Fisher, Cat #11320033) supplemented with 1XB27 supplement (Gibco™ B-27™ Supplement (50×) serum free (Cat #17504044), 2.5 μg/ml of Amphotericin B (Thermo Fisher, Cat #15290018), and 50 units/ml of Penicillin-50 μg/ml of Streptomycin (Thermo Fisher, Cat #15070063), and 10% human serum (Gemini 100-110). Skin samples divided to smaller 3-4 mm pieces and placed dermal side down onto membranes (Transwell Permeable Supports, 12 well plate, Corning 12 mm Transwell® with 3.0 μm Pore Polycarbonate Membrane Insert, Sterile Corning #3402). The edges of the samples were sealed with semisoft 3% agarose (Sigma, CAS 9012-36-6) prepared in DMEMF-12 medium, and the apical surface was kept in contact with air to use formulations. […]
Western Blot analysis: Frozen skin samples were thawed on ice and weighed. […] The lysate protein concentration was determined by the BCA protein assay kit using bovine serum albumin (BSA) as standards. […]

[5] = test system: p-ERK; assay: Ex vivo cutaneous neurofibroma explants (Example 20): p-ERK by immunohistochemistry; format: cell-based, human; settings: 3 μl of gel formulation on explant; 0.1% or 0.5% by weight
Description: The study was conducted using a protocol similar to Example 16 with some modifications as described below.
Skin samples divided to smaller 3-4 mm pieces and placed dermal side down onto membranes. The edges of the samples were sealed with semisoft 3% agarose prepared in DMEMF-12 medium, and the apical surface was kept in contact with air to use formulations. The basal surface was in contact with the growth medium DMEMF-12 containing 10% human serum, Amphotericin B, Penicillin-Streptomycin and 1XB27. This set up enables testing of transdermal drug delivery while the tissues remain viable in the medium for the duration of the test. 3 μl of the test formulation was used.
Immunohistochemistry: Immunohistochemistry for p-ERK was performed using standard operating procedures and fully automated workflow.
3 μl of the test formulation was used.

[6] = test system: ICI; assay: CellTiter-Glo Luminescent Cell Viability Assay, SCC cells ICI; format: cell-based, human; settings: 72 hours, 0.01-30 μM, compared to NHEK
[7] = test system: cSCC; assay: UV-driven mouse model of cSCC, chemoprevention study: number of tumors; format: in vivo, Hairless SKH-1E mice
Description: 136, no. 9, 2016, pp. 1920-1924 by Adelmann, C. H., et al., the entirety of which is incorporated herein by reference for all purposes. UV radiation was administered using a solar simulator (Oriel) metered at 12.5 kJ/m^2 UVB weekly, 3.4 SED for three months on Hairless SKH-1E mice.
Samples: The gel formulation (NA-1a) including Compound 1.003 in an amount of 0.1%, 0.5%, 1.0%, and 2.3% by weight of the formulation was used in the study.
(§1) A UV-driven mouse model was used to test if a topical formulation including Compound 1.003 could be used to reduce tumor burden in vivo. […] Once a mouse developed one tumor that measured 3 mm in diameter, they were randomly assigned to receive Vehicle, 0.1% Compound 1.003, 0.5% Compound 1.003, 1.0% Compound 1.003, or 2.3% Compound 1.003. Once enrolled, mice were treated with 200 uL of vehicle or the gel formulation of Compound 1.003. Drug was evenly applied to the back skin of the mouse and allowed to dry. Mice were treated for 30 days (5 d/week). […] Skin biopsies were obtained 4 hours after drug treatment at end of study.

[8] = in vivo; settings: rat, po, 300 mg/kg/day
[9] = test system: COLO 16; assay: CellTiter-Glo Luminescent Cell Viability Assay, SCC cells COLO 16; format: cell-based, human; settings: 72 hours, 0.01-30 μM, compared to NHEK
[10] = test system: p-ERK1/2; assay: UV-driven mouse model of cSCC: nano-immunoassay for p-ERK1/2 and total ERK1/2 in skin biopsies; format: in vivo, Hairless SKH-1E mice
Description: as §1

[11] = test system: p-ERK; assay: p-ERK suppression in rat skin by oral administration; format: in vivo
Description: p-ERK suppression in rat skin was evaluated by oral administration of Compound 1.003.

[12] = UV-driven mouse model of cSCC: tolerability (skin, body weight); format: in vivo, Hairless SKH-1E mice; settings: topical 0.1%-2.3%, 30 days
Description: as §1

[13] = systemic exposure; cited from earlier work

With `Cn1c(Nc2ccc(I)cc2F)c(C(=O)NOCCO)c2cccnc21` [Compound 1.003] as the compound, how does the “total tumor volume / tumor burden on the treated side” value [1] read?
The value was “Substantial tumor regression and tumor suppression; also recorded: decreased to nearly undetectable levels”.

What about the “suppression of p-ERK in human cSCC specimens (immunohistochemistry)” value [2] of the same compound?
The value was “robust suppression of p-ERK”.

What about the “suppression of p-ERK in minipig skin (FIG. 1)” value [3] of the same compound?
The value was “dose dependent suppression of p-ERK”.

What about the “suppression of p-ERK by Western Blot analysis” value [4] of the same compound?
Its value is “complete suppression of p-ERK”.

What about the “suppression of p-ERK by immunohistochemistry” value [5] of the same compound?
The value was “Dose dependent suppression”.

And the “cell viability, ICI” value [6]?
Its value is “dose dependent reduction in cell viability”.

What about the “number of tumors at the end of treatment, 0.1%” value ([7]; 0.1% in gel (NA-1a), 30 days, n=10 mice, vehicle 60 tumors) of the same compound?
Its value is 31 tumors.

What about the “number of tumors at the end of treatment, 0.5%” value ([7]; 0.5% in gel (NA-1a), 30 days, n=10 mice, vehicle 60 tumors) of the same compound?
Its value is 23 tumors.

What about the “suppression of new tumors at 1.0% dose and above” value ([7]; 1.0% dose and above, 30 days, n=10 per group) of the same compound?
Its value is “near complete suppression of new tumors”.

What about the “number of tumors at the end of treatment, 1.0%” value ([7]; 1.0% in gel (NA-1a), 30 days, n=10 mice, vehicle 60 tumors) of the same compound?
Its value is 13 tumors.

What about the “number of tumors at the end of treatment, 2.3%” value ([7]; 2.3% in gel (NA-1a), 200 uL, 30 days (5 d/week), n=10 mice, vehicle 60 tumors) of the same compound?
Its value is 16 tumors.

What about the “total tumors / new tumor formation (FIG. 5)” value ([7]; gel formulation (NA-1a), 0.1%-2.3%, 30 days) of the same compound?
Its value is “dramatically suppresses new tumor formation; also recorded: suppression of total tumors”.

And the “decrease in the total number of tumors present at the end of treatment” value ([7]; highest doses of Compound 1.003, vs vehicle)?
The value was “approximately 4 fold”.

What about the Cmax [8] of the same compound?
The Cmax was ~1360 ng/mL.

What about the “cell viability, COLO 16” value [9] of the same compound?
The value was “dose dependent reduction in cell viability”.

And the “p-ERK levels in skin biopsies (nano-immunoassay)” value ([10]; 0.1% and greater vs vehicle, biopsies 4 hours after drug treatment at end of study)?
Its value is “suppression of p-ERK levels”.

And the “suppression of p-ERK levels in mouse skin (FIG. 6B, text)” value ([10]; concentrations 0.6 or greater (so in the source), in %)?
The value was ≥ 65.

What about the “suppression of p-ERK levels in mouse skin (FIG. 6B legend)” value ([10]; mouse skin treated with Compound 1.003) of the same compound?
The value was ≥ 65%.

What about the “change of p-ERK after oral administration (FIG. 2)” value ([11]; rat skin, oral, various doses) of the same compound?
The value was “no change of p-ERK”.

What about the “suppression of p-ERK in the skin” value ([11]; rat, 21-days of oral administration at 300 mg/kg/day) of the same compound?
Its value is “not observed”.

And the “skin peeling or erosions” value [12]?
Its value is “No skin peeling or erosions were observed”.

What about the “weight loss (biweekly weight measurement)” value [12] of the same compound?
Its value is “no weight loss”.

For `O=C1CCCc2c1sc(Nc1ccc(I)cc1F)c2C(=O)NOCCO` [Compound 2.003], which “suppression of p-ERK by immunohistochemistry” value [5] is on record?
Its value is “Dose dependent suppression”.

For `O=C(NOC[C@H](O)CO)c1ccc(F)c(F)c1Nc1ccc(I)cc1F` [PD0325901], which “side effects in clinical trials” value [13] is on record?
The value was “neurological side effects associated with ataxia, confusion, and syncope”.
